Data published in patent US5847092A (Zambon Group S.p.A., priority 1994, dated 1998).
Values after ≈ are worked out from the molar mass of the structure shown. Like-named read-outs stand apart in the source and are kept apart here.

Columns and labels:
[1] = test system: Streptococcus pyogenes A 26; assay: In vitro antibacterial activity, MIC, broth microdilution; type: cell-based; settings: S. pyogenes A 26, MHB + 5% horse serum, 37° C., 18 hours; for MIC: Streptococcus pyogenes, A26, read-out: minimum inhibiting concentration MIC
Description: (§1) a) In vitro antibacterial activity The determination of the minimum inhibiting concentrations (MIC), with respect to Gram-positive and Gram-negative bacteria was carried out through the micromethod of gradual broth dilution in double series [National Committee for Clinical Laboratory Standards, 1990; Methods for dilution antimicrobial susceptibility tests for bacteria that grow aerobically; Approved standards […], Villanova, Pa.], by using Mueller Hinton Broth (MHB) as a culture medium. In the case of […] bacteria, horse serum at 5% (Streptococcus pneumoniae and Streptococcus pyogenes) was added to the medium. Roxithromycin and Clarithromycin [The Merck Index, XI Ed., No. 8253 and 2340, respectively] were used as reference macrolides. MIC, expressed as (μg/ml), were determined after incubation of the microplates at 37° C. for 18 hours, evaluating the lowest antibiotic concentration enabling the inhibition of bacterial development.

[2] = test system: Streptococcus pneumoniae BS 4; assay: as above; type: cell-based; settings: S. pneumoniae BS 4, MHB + 5% horse serum, 37° C., 18 hours; for MIC: Streptococcus pneumoniae, BS4, read-out: minimum inhibiting concentration MIC
Description: as §1

[3] = test system: Streptococcus pneumoniae BS 3; assay: as above; type: cell-based; settings: S. pneumoniae BS 3, MHB + 5% horse serum, 37° C., 18 hours; for MIC: Streptococcus pneumoniae, BS3, read-out: minimum inhibiting concentration MIC
Description: as §1

[4] = test system: Klebsiella pneumoniae ZC 2; assay: as above; type: cell-based; settings: K. pneumoniae ZC 2, MHB, 37° C., 18 hours; for MIC: Klebsiella pneumoniae, ZC2, read-out: minimum inhibiting concentration MIC
Description: as §1

[5] = test system: Escherichia coli ATCC 25922; assay: as above; type: cell-based; settings: E. coli ATCC 25922, MHB, 37° C., 18 hours; for MIC: Escherichia coli, ATCC25922, read-out: minimum inhibiting concentration MIC
Description: as §1

[6] = test system: Streptococcus pyogenes C 203; assay: as above; type: cell-based; settings: S. pyogenes C 203, MHB + 5% horse serum, 37° C., 18 hours; for MIC: Streptococcus pyogenes, C203, read-out: minimum inhibiting concentration MIC
Description: as §1

[7] = test system: Enterococcus faecalis ATCC 29212; assay: as above; type: cell-based; settings: E. faecalis ATCC 29212, MHB, 37° C., 18 hours; for MIC: Enterococcus faecalis, ATCC29212, read-out: minimum inhibiting concentration MIC
Description: as §1

[8] = test system: Staphylococcus aureus PV 14; assay: as above; type: cell-based; settings: S. aureus PV 14, MHB, 37° C., 18 hours; for MIC: Staphylococcus aureus, PV14, read-out: minimum inhibiting concentration MIC
Description: as §1

[9] = test system: Streptococcus pyogenes C 203; assay: In vivo antibacterial activity, experimental pulmonary infection in mouse; settings: for ED50: Streptococcus pyogenes, C203, ip, 240 h, intraperitoneal single dose, read-out: average protecting dose PD50
Description: The in vivo antibacterial activity of the compounds of formula (I), expressed as average protecting dose PD50 (mg/Kg), was evaluated by means of experimental pulmonary infection induced in mouse by Streptococcus pyogenes (example 23).
b) In vivo antibacterial activity
The therapeutical effectiveness, expressed as average protecting dose (PD50), of the considered compounds of formula (I) was evaluated by experimental pulmonary infection induced in mouse by Streptococcus pyogenesC 203.
Charles River albin mice (strain CD 1), of body weight comprised between 23-35 g, stabulated in groups of 6 for cage and normo-feeded with standard diet and water ad libitum were used. A suspension of S. pyogenes C 203 (corresponding about to 10^8 UFC) in tryptose broth (0.05 ml) was intranasally administered to each mouse anesthesized with a mixture of ethyl ether and chloroform.
The compounds under examination were intraperitoneally administered as a single dose, in 0.2% Tween suspension, 24 hours before or 1 hour after the infection.
Mice mortality observation was prolonged up to 10 days from the infection.
PD50 calculation, expressed as (mg/Kg), was carried out through the analysis of probit.
In vivo antibacterial activity, expressed as average protecting dose PD50 (mg/Kg), 24 hours before and 1 hour after the experimental pulmonary infection induced in mouse by Streptococcus pyogenes C 203, of the compounds 4, 10, 16-19, 21, 23, 26-27, 29-30, 33-35 and 38 and of the reference compounds Roxithromycin and Clarithromycin.

| Compound | MIC [1] [µg/mL] | MIC [2] [µg/mL] | MIC [3] [µg/mL] | MIC [4] [µg/mL] | MIC [5] [µg/mL] | MIC [6] [µg/mL] | MIC [7] [µg/mL] | MIC [8] [µg/mL] | ED50 ([9]; 1 hour after infection) [mg/kg] | ED50 ([9]; 24 hours before infection) [mg/kg] | in vivo activity, pulmonary infection (in words) ([9]; administered 24 hours before the infection) | minimum inhibiting concentration MIC [1] [µg/mL] | minimum inhibiting concentration MIC [2] [µg/mL] | minimum inhibiting concentration MIC [3] [µg/mL] | minimum inhibiting concentration MIC [4] [µg/mL] | minimum inhibiting concentration MIC [5] [µg/mL] | minimum inhibiting concentration MIC [6] [µg/mL] | minimum inhibiting concentration MIC [7] [µg/mL] | minimum inhibiting concentration MIC [8] [µg/mL] |
| --- | --- | --- | --- | --- | --- | --- | --- | --- | --- | --- | --- | --- | --- | --- | --- | --- | --- | --- | --- |
| CC[C@H]1OC(=O)[C@H](C)[C@@H](O[C@H]2C[C@@](C)(OC)[C@@H](O)[C@H](C)O2)[C@H](C)[C@@H](O[C@@H]2O[C@H](C)C[C@H](N(C)C)[C@H]2O)[C@](C)(OC)C[C@@H](C)C(=O)[C@H](C)[C@@H](O)[C@]1(C)O [Clarithromycin, reference compound] | 0.0078 | 0.0156 | 0.0078 | 128 (≈ 171 µM) | 64 (≈ 85.6 µM) | 0.0078 | 1 (≈ 1.34 µM) | 0.25 (≈ 0.334 µM) | 3.25 | > 50 | inactive |  |  |  |  |  |  |  |  |
| CC[C@H]1OC(=O)[C@H](C)[C@@H](O[C@H]2C[C@@](C)(OC)[C@@H](O)[C@H](C)O2)[C@H](C)[C@@H](O[C@@H]2O[C@H](C)C[C@H](N(C)C)[C@H]2O)[C@](C)(O)C[C@@H](C)/C(=N\OCCNCCCCCCNCc2ccccc2)[C@H](C)[C@@H](O)[C@]1(C)O [Compound 4, Erythromycin A (E)-9-[0-[2-[6-(phenylmethylamino)hexylamino]ethyl]oxime]] | 0.0156 | 0.0156 | 0.0156 | 16 (≈ 16.3 µM) | 4 (≈ 4.08 µM) | 0.0039 | 4 (≈ 4.08 µM) | 0.25 (≈ 0.255 µM) | 0.9 | 4.78 |  |  |  |  |  |  |  |  |  |
| CC[C@H]1OC(=O)[C@H](C)[C@@H](O[C@H]2C[C@@](C)(OC)[C@@H](O)[C@H](C)O2)[C@H](C)[C@@H](O[C@@H]2O[C@H](C)C[C@H](N(C)C)[C@H]2O)[C@](C)(O)C[C@@H](C)/C(=N\OCCNCCCCCNCc2ccccc2)[C@H](C)[C@@H](O)[C@]1(C)O [Compound 10, Erythromycin A (E)-9-[0-[2-[5-(phenylmethylamino)pentylamino]ethyl]oxime]] | 0.0078 | 0.0156 | 0.0156 | 16 (≈ 16.5 µM) | 4 (≈ 4.14 µM) | 0.0039 | 4 (≈ 4.14 µM) | 0.5 (≈ 0.517 µM) | 2.36 | 5.8 |  |  |  |  |  |  |  |  |  |
| CC[C@H]1OC(=O)[C@H](C)[C@@H](O[C@H]2C[C@@](C)(OC)[C@@H](O)[C@H](C)O2)[C@H](C)[C@@H](O[C@@H]2O[C@H](C)C[C@H](N(C)C)[C@H]2O)[C@](C)(O)C[C@@H](C)/C(=N\OCCNCCCCCCNCc2ccc(F)cc2)[C@H](C)[C@@H](O)[C@]1(C)O [Compound 16, Erythromycin A (E)-9-[0-[2-[6-[(4-fluorophenyl)methylamino]hexylamino]ethyl]oxime]] | 0.0156 | 0.0156 | 0.0156 | 8 (≈ 8.01 µM) | 2 (≈ 2 µM) | 0.0039 | 4 (≈ 4 µM) | 0.25 (≈ 0.25 µM) | 3.6 | 10.2 |  |  |  |  |  |  |  |  |  |
| CC[C@H]1OC(=O)[C@H](C)[C@@H](O[C@H]2C[C@@](C)(OC)[C@@H](O)[C@H](C)O2)[C@H](C)[C@@H](O[C@@H]2O[C@H](C)C[C@H](N(C)C)[C@H]2O)[C@](C)(O)C[C@@H](C)/C(=N\OCCNCCCCCCNCc2ccc(OC)cc2)[C@H](C)[C@@H](O)[C@]1(C)O [Compound 17, Erythromycin A (E)-9-[0-[2-[6-[(4-methoxyphenyl)methylamino]hexylamino]ethyl]oxime]] | 0.0625 | 0.0625 | 0.0312 | 16 (≈ 15.8 µM) | 4 (≈ 3.96 µM) | 0.0039 | 4 (≈ 3.96 µM) | 0.25 (≈ 0.247 µM) | 1.17 | 8.16 |  |  |  |  |  |  |  |  |  |
| CC[C@H]1OC(=O)[C@H](C)[C@@H](O[C@H]2C[C@@](C)(OC)[C@@H](O)[C@H](C)O2)[C@H](C)[C@@H](O[C@@H]2O[C@H](C)C[C@H](N(C)C)[C@H]2O)[C@](C)(O)C[C@@H](C)/C(=N\OCCNCCCCCCNCc2ccc3c(c2)OCO3)[C@H](C)[C@@H](O)[C@]1(C)O [Compound 18, Erythromycin A (E)-9-[0-[2-[6-[(3,4-methylenedioxyphenyl)methylamino]hexylamino]ethyl]oxime]] | 0.0312 | 0.0312 | 0.0156 | 16 (≈ 15.6 µM) | 2 (≈ 1.95 µM) | 0.0078 | 2 (≈ 1.95 µM) | 0.25 (≈ 0.244 µM) | 1.32 | 2.23 |  |  |  |  |  |  |  |  |  |
| CC[C@H]1OC(=O)[C@H](C)[C@@H](O[C@H]2C[C@@](C)(OC)[C@@H](O)[C@H](C)O2)[C@H](C)[C@@H](O[C@@H]2O[C@H](C)C[C@H](N(C)C)[C@H]2O)[C@](C)(O)C[C@@H](C)/C(=N\OCCNCCCCCCNCc2cccc(C(F)(F)F)c2)[C@H](C)[C@@H](O)[C@]1(C)O [Compound 19, Erythromycin A (E)-9-[0-[2-[6-[(3-trifluoromethylphenyl)methylamino]hexylamino]ethyl]oxime]] | 0.0156 | 0.0078 | 0.0156 | 8 (≈ 7.62 µM) | 2 (≈ 1.91 µM) | 0.0156 | 2 (≈ 1.91 µM) | 1 (≈ 0.953 µM) | 1.95 | 4.84 |  |  |  |  |  |  |  |  |  |
| CC[C@H]1OC(=O)[C@H](C)[C@@H](O[C@H]2C[C@@](C)(OC)[C@@H](O)[C@H](C)O2)[C@H](C)[C@@H](O[C@@H]2O[C@H](C)C[C@H](N(C)C)[C@H]2O)[C@](C)(O)C[C@@H](C)/C(=N\OCCNCCCCCCNCc2ccccc2C(F)(F)F)[C@H](C)[C@@H](O)[C@]1(C)O [Compound 21, Erythromycin A (E)-9-[0-[2-[6-[(2-trifluoromethylphenyl)methylamino]hexylamino]ethyl]oxime]] | 0.0078 | 0.0039 | 0.0078 | 16 (≈ 15.2 µM) | 4 (≈ 3.81 µM) | 0.0156 | 2 (≈ 1.91 µM) | 1 (≈ 0.953 µM) | 0.82 | 5.95 |  |  |  |  |  |  |  |  |  |
| CC[C@H]1OC(=O)[C@H](C)[C@@H](O[C@H]2C[C@@](C)(OC)[C@@H](O)[C@H](C)O2)[C@H](C)[C@@H](O[C@@H]2O[C@H](C)C[C@H](N(C)C)[C@H]2O)[C@](C)(O)C[C@@H](C)/C(=N\OCCNCCCCCCNCc2ccc([N+](=O)[O-])c(O)c2)[C@H](C)[C@@H](O)[C@]1(C)O [Compound 37, Erythromycin A (E)-9-[0-[2-[6-[(3-hydroxy-4-nitrophenyl)methylamino]hexylamino]ethyl]oxime]] | 0.0312 | 0.0312 | 0.0312 | 16 (≈ 15.4 µM) | 4 (≈ 3.84 µM) | 0.0039 | 8 (≈ 7.68 µM) | 0.5 (≈ 0.48 µM) |  |  |  |  |  |  |  |  |  |  |  |
| Erythromycin A (E)-9-[0-[2-[N-ethyl-6-[N'-ethyl-N'-(2-phenylethyl)amino]hexylamino]hexyl])oxime] [Compound 2] |  |  |  |  |  |  |  |  |  |  |  | 0.0156 | 0.0312 | 0.0156 | 64 | 16 | 0.0312 | 8 | 1 |
